The source of these data is patent US9079852B2, “NMDA receptor antagonists for neuroprotection” (Emory University, priority 2007, dated 2015).

A short description of series [1]: Brain exposure / brain penetration (Table H). Format: in vivo, rat. Conditions: for BBB Pene Classification: classes High/Moderate/Low, key not given. The protocol: (§1) Rats (n=3 per dose) were administered compounds at a doses of 1-4 mg/kg in a single bolus i.v. infusion (2 ml/kg body weight) via the tail vein formulated in 2% dimethyl acetamide/98% 2-hydroxy-propyl cyclodextrin (5%). Animals were fasted overnight prior to dose administration and food returned to the animals two hours after dosing. Following IV dosing, blood samples (ca 200 μL) were collected into separate tubes containing anticoagulant (K-EDTA) via the orbital plexus at various times post administration. Plasma samples were prepared immediately after collection by centrifugation for ten minutes using a tabletop centrifuge, and stored at −80° C. Brain tissue was weighed, homogenized on ice in 50 mM phosphate buffer (2 ml per brain) and the homogenate stored at −80° C. Plasma and brain homogenate samples were extracted by the addition of 5 volumes of cold acetonitrile, mixed well by vortexing and centrifuged at 4000 rpm for 15 minutes. The supernatant fractions were analyzed by LC-MS/MS operating in multiple reaction monitoring mode (MRM). The amount of parent compound in each sample was calculated by comparing the response of the analyte in the sample to that of a standard curve.

In series [2] the target is rat alpha-1 adrenergic receptor. Nature of the series: alpha-1 adrenergic receptor binding by displacement of 3[H]-prazosin in rat brain membranes. Conditions: 3[H]-prazosin displacement, read-out: α1 IC50. How it is done:
Binding to the rat alpha-1 adrenergic receptor in rat brain membranes was determined by displacement of ^3[H]-prazosin (P. Greengrass and R. Bremner; Binding characteristics of 3H-prazosin to rat brain a-adrenergic receptors. Eur. J. Pharmacol. 1979, 55: 323-326). Compounds were incubated at 0.3 or 3 μM final concentration, in duplicate, and the amount of displaced ^3[H]-prazosin determined by liquid scintillation spectroscopy.
Binding IC50 values were determined from displacement curves (four-six concentrations, each concentration in duplicate) fit by a non-linear, least squares, regression analysis using MathIQ (ID Business Solutions Ltd., UK). The binding Ki's were determined from the IC50 according to the method of Cheng and Prusoff (Y. Cheng and W. H. Prusoff; Relationship between the inhibition constant (K1) and the concentration of inhibitor which causes 50 percent inhibition (IC50) of an enzymatic reaction. Biochem. Pharmacol. 1973, 22: 3099-3108).

A short description of series [3]: Plasma half-life / plasma pharmacokinetics (Table G). Conditions: rat. Type of series: in vivo. The protocol: as §1, with “Animals” for “Rats (n=3 per dose) were administered compounds at a doses of 1-4 mg/kg in a single bolus i.v. infusion (2 ml/kg body weight) via the tail vein formulated in 2% dimethyl acetamide/98% 2-hydroxy-propyl cyclodextrin (5%). Animals”

The nature of series [4]: Oral absorption (Table I). Format: in vivo. As to conditions: rat, plasma, read-out: p.o. t½ hr (converted).
Where [5] appears, read: iv, 1 mg/kg, 1 MPK i.v., read-out: PK-i.v. t½ (converted).
Where [6] appears, read: iv, 3 mg/kg, 3 MPK i.v., read-out: PK-i.v. t½ (converted).

On to `O=C(COc1ccc2[nH]c(=O)oc2c1)N1CCN(c2ccc(Cl)c(Cl)c2)CC1` [drawing 774], for which the “BBB Pene Classification” value in series [1] is reported as “Moderate”.
Consider `NC(=O)Nc1ccc(OC[C@@H](O)CN2CCN(c3ccc(Cl)cc3)C2=O)cc1` [drawing 773], for which the “RATIO: Brain:plasma (Direct)” value in series [1] (1 MPK i.v., no time point printed) is given as “Below Detection limit (~0)”. For the same compound, the “BBB Pene Classification” value in series [1] is reported as “Low”.
On to `O=c1[nH]c2ccc(OC[C@@H](O)CN3CCN(c4ccc(Cl)cc4)CC3)cc2o1` [drawing 744], for which the IC50 (commonly the midpoint of a concentration-inhibition curve) in series [2] came out at 620 nM.
For `Oc1ccc(OC[C@@H](O)CN2CCN(c3ccc(Cl)cc3)CC2)cc1` [drawing 743], the IC50 in series [2] turned out to be 720 nM.
Regarding `NC(=O)Nc1ccc(OC[C@@H](O)CN2CCN(c3ccc(Cl)cc3)CC2)cc1` [drawing 771], in series [1], the “BBB Pene Classification” value is “Low”.
As to `O[C@H](COc1ccc2[nH]c(=S)[nH]c2c1)CN1CCN(c2ccc(Cl)cc2)CC1`, the IC50 in series [2] was around 150 nM.
Take `O=C1N(C[C@H](O)COc2ccc(O)cc2)CCN1c1ccc(Cl)cc1` [drawing 772]: in series [1], the “BBB Pene Classification” value is “High”.
In the case of `NC(=O)Nc1ccc(OC[C@@H](O)CN2CCN(c3ccc(Cl)cc3)CC2)cc1` [drawing 754], the half-life in series [3] (setting [5]) was 2.7 h.
Turning to `O=c1[nH]c2ccc(OC[C@@H](O)CSc3nc4cc(Cl)c(Cl)cc4[nH]3)cc2o1` [drawing 766], the half-life in series [3] (setting [6]) was at most 0.8 h.
With `NC(=O)Nc1ccc(OC[C@@H](O)CN2CCN(c3ccc(Cl)cc3)CC2)cc1` [drawing 778], the half-life in series [4] (10 mg/kg, 10 MPK, 0-8 hr p.o.) is 388 min.
As for `O=c1ccc2cc(OC[C@@H](O)CN3CCN(c4ccc(Cl)cc4)CC3)ccc2[nH]1`, the IC50 in series [2] is around 350 nM.
Consider `CS(=O)(=O)Nc1ccc(OC[C@@H](O)CN2CCN(c3ccc(Cl)cc3)CC2)cc1`, for which the IC50 in series [2] came to 350 nM.
Consider `NC(=O)Nc1ccc(OC[C@@H](O)CN2CCN(c3ccc(Cl)cc3)C2=O)cc1` [drawing 762], for which the half-life in series [3] (setting [5]) was 1.14 h.
As for `Cc1ccc(N2CCN(C[C@H](O)COc3ccc4c(c3)CCC(=O)N4)CC2)cc1` [drawing 780], the half-life in series [4] (5 mg/kg, 5 MPK, 0-6 hr p.o.) was 51 min.
With `NC(=O)Nc1ccc(OC[C@@H](O)CN2CCN(c3ccc(Cl)cc3)CC2)cc1` [drawing 746], in series [2], the IC50 came to 340 nM.
As to `Cc1ccc(N2CCN(C[C@H](O)COc3ccc4c(c3)CCC(=O)N4)CC2)cc1` [drawing 758], the half-life in series [3] (setting [5]) is 0.8 h.
On the same count and under the same terms, with `O=c1[nH]c2ccc(OC[C@@H](O)CN3CCN(c4ccc(Cl)cc4)CC3)cc2o1` [drawing 760] the figure was 0.6 h.
For `CS(=O)(=O)Nc1ccc(OC[C@@H](O)CN2CCN(c3ccc(F)c(F)c3)CC2)cc1` [drawing 770], in series [1], the “BBB Pene Classification” value was “Moderate”.
Regarding `CS(=O)(=O)Nc1ccc(OC[C@@H](O)CN2CCN(c3ccc(F)c(F)c3)CC2)cc1` [drawing 757], the half-life in series [3] (ip, 60 mg/kg, 60 MPK i.p., read-out: PK t½ (hr) i.p.) is above 2 h.
Regarding `O=C(COc1ccc2[nH]c(=O)oc2c1)N1CCN(c2ccc(Cl)c(Cl)c2)CC1` [drawing 765], the half-life in series [3] (ip, 10 mg/kg, 10 MPK i.p., read-out: PK t½ (hr) i.p.) was around 0.83 h.
As to `O=c1[nH]c2ccc(OC[C@@H](O)CN3CCN(c4ccc(Cl)cc4)CC3)cc2[nH]1`, in series [2], the IC50 is around 350 nM.
For the compound `Oc1ccc(OC[C@@H](O)CN2CCN(c3ccc(Cl)cc3)CC2)cc1` [drawing 759], the half-life in series [3] (setting [5]) was 0.6 h.
On to `O=c1[nH]c2ccc(OC[C@@H](O)CSc3nc4cc(Cl)c(Cl)cc4[nH]3)cc2o1` [drawing 777], for which, in series [1] (3 MPK i.v., 30 m), the “RATIO: Brain:plasma (Direct), 30 m” value was “BLQ (avg); BLQ (30 m), BLQ (1 hr),”. Besides, the “RATIO: Brain:plasma (Direct), 1 hr” value in series [1] (3 MPK i.v., 1 hr) was “BLQ (avg); BLQ (30 m), BLQ (1 hr),”. Moreover, in series [1] (3 MPK i.v., avg), the “RATIO: Brain:plasma (Direct), avg” value is given as “BLQ (avg); BLQ (30 m), BLQ (1 hr),”. The “BBB Pene Classification” value in series [1] was “Moderate”.
Consider `O=C1Cc2cc(OC[C@@H](O)CN3CCN(c4ccc(Cl)cc4)CC3)ccc2N1`, for which, in series [2], the IC50 was around 100 nM.
Turning to `O=C1CCc2cc(OC[C@@H](O)CN3CCN(c4ccc(Cl)cc4)CC3)ccc2N1`, the IC50 in series [2] is around 100 nM.
For `O=c1[nH]c2ccc(OC[C@@H](O)CN3CCN(c4ccc(F)c(F)c4)CC3)cc2[nH]1` [drawing 755], the half-life in series [3] (setting [5]) is 2.4 h.
As for `O=c1[nH]c2ccc(OC[C@@H](O)CN3CCN(c4ccc(F)c(F)c4)CC3)cc2[nH]1` [drawing 779], the half-life in series [4] (5 mg/kg, 5 MPK, 0-6 hr p.o.) is 182 min.
As to `O=C1N(C[C@H](O)COc2ccc(O)cc2)CCN1c1ccc(Cl)cc1` [drawing 763], in series [3] (setting [6]), the half-life is at most 0.8 h.
For the compound `O=C(COc1ccc2[nH]c(=O)oc2c1)N1CCN(c2ccc(Cl)c(Cl)c2)CC1` [drawing 775], the Kp at 15 min in series [1] (rat, brain/plasma, iv, 1 mg/kg, 1 MPK i.v., 15 m, read-out: RATIO: Brain:plasma (Direct), 15 m) amounted to 0.04. In addition, the Kp at 30 min in series [1] (rat, brain/plasma, iv, 1 mg/kg, 1 MPK i.v., 30 m, read-out: RATIO: Brain:plasma (Direct), 30 m) stood at 0.06. Moreover, the Kp at 1 h in series [1] (rat, brain/plasma, iv, 1 mg/kg, 1 MPK i.v., 1 hr, read-out: RATIO: Brain:plasma (Direct), 1 hr) was found to be 0.07. The Kp at 3 h in series [1] (rat, brain/plasma, iv, 1 mg/kg, 1 MPK i.v., 3 hr, read-out: RATIO: Brain:plasma (Direct), 3 hr) stood at 0.1. The Kp in series [1] (rat, brain/plasma, iv, 1 mg/kg, 1 MPK i.v., avg, read-out: RATIO: Brain:plasma (Direct), avg) is 0.07.
Turning to `Cc1ccc(N2CCN(C[C@H](O)COc3ccc4[nH]c(=O)oc4c3)CC2)cc1` [drawing 761], the half-life in series [3] (setting [5]) is 0.6 h.
Turning to `Oc1ccc(OC[C@@H](O)CSc2nc3cc(Cl)c(Cl)cc3[nH]2)cc1` [drawing 767], in series [3] (setting [6]), the half-life is around 0.5 h.
Take `O[C@H](COc1ccc2[nH]ncc2c1)CN1CCN(c2ccc(Cl)cc2)CC1`: the IC50 in series [2] is around 300 nM.
Turning to `O=C(COc1ccc2[nH]c(=O)[nH]c2c1)N1CCN(c2ccc(Cl)c(Cl)c2)CC1`, the half-life in series [3] (setting [5]) is 1.84 h.
As for `Cc1ccc(N2CCN(C[C@H](O)COc3ccc4[nH]c(=O)oc4c3)CC2)cc1` [drawing 769], in series [1], the “BBB Pene Classification” value is on record as “Moderate”.
As to `Oc1ccc(OC[C@@H](O)CSc2nc3cc(Cl)c(Cl)cc3[nH]2)cc1` [drawing 776], in series [1] (3 MPK i.v., 2 hr), the “RATIO: Brain:plasma (Direct), 2 hr” value was “BLQ”. The “BBB Pene Classification” value in series [1] is “High”.
On to `Oc1ccc(OC[C@@H](O)CN2CCN(c3ccc(Cl)cc3)CC2)cc1` [drawing 768], for which, in series [1], the “BBB Pene Classification” value was “High”.
Turning to `CS(=O)(=O)Nc1ccc(OC[C@@H](O)CN2CCN(c3ccc(Cl)c(Cl)c3)CC2)cc1`, in series [3] (setting [6]), the half-life is 2.6 h.
